# From ChEMBL document CHEMBL1129398, “Non-peptide glycoprotein IIb/IIIa antagonists. 11. Design and in vivo evaluation of 3,4-dihydro-1 (1H)-isoquinolinone-based antagonists and ethyl ester prodrugs” (J Med Chem, 1996)
# pIC50: −log10 of the molar value.
# Legend:
# [1] = test system: Canis familiaris; test: Effect on inhibition of the extent of ex vivo ADP-induced aggregation in canine platelet rich plasma at dose of 0.1 mg/kg po; type: functional; conditions: Canis lupus familiaris
# [2] = test system: Canis familiaris; test: Effect on inhibition of the extent of ex vivo ADP-induced aggregation in canine platelet rich plasma at dose of 0.5 mg/kg po; type: functional; conditions: Canis lupus familiaris
# [3] = organism: Homo sapiens; test: in vitro inhibition of human gel-filtered platelets; type: functional
# [4] = test system: Canis familiaris; test: Effect on inhibition of the extent of ex vivo ADP-induced aggregation in canine platelet rich plasma at dose of 0.3 mg/kg po; type: functional; conditions: Canis lupus familiaris
# [5] = organism: Homo sapiens; test: in vitro inhibition of human gel-filtered platelets using ADP agonist; type: functional
# [6] = test system: Canis familiaris; test: Tmax was measured by calculating maximum time taken for ADP -induced platelet aggregation in canine platelet rich plasma at dose of 0.5 mg/kg po; Tmax hours; type: ADME, organism-based, Canis lupus familiaris; parameters: dose 0.5 mg/kg; conditions: dog, in vivo
# [7] = test system: Canis familiaris; test: Tmax was measured by calculating maximum time taken for ADP -induced plat let aggregation n canine platelet rich plasma at dose of 0.5 mg/kg po; Tmax hours; type: ADME, organism-based, Canis lupus familiaris; parameters: dose 0.5 mg/kg; conditions: dog, in vivo
# [8] = organism: Homo sapiens; test: In vitro inhibition of human gel-filtered platelets; type: functional
SMILES,pIC50 [3],inhibition in vivo at 0.5 mg/kg [2] [%],also measured
C#C[C@H](CC(=O)OCC)NC(=O)Cn1c(=O)[nH]c2ccc(N3CCNCC3)cc2c1=O,,,inhibition in vivo at 0.1 mg/kg [1]: 0%
C#C[C@H](CC(=O)OCC)NC(=O)CN1CCc2ccc(N3CCNCC3)c(Cl)c2C1=O,,100,
C#C[C@H](CC(=O)O)NC(=O)CN1CCc2ccc(C3CCNCC3)cc2C1=O,8.22,,inhibition in vivo at 0.3 mg/kg [4]: 100%
C#C[C@H](CC(=O)O)NC(=O)Cn1ccc2ccc(N3CCNCC3)cc2c1=O,,,pIC50 [5]: 7.09
C#C[C@H](CC(=O)O)NC(=O)Cn1cnc2ccc(N3CCNCC3)cc2c1=O,,,pIC50 [5]: 6.48
C#C[C@H](CC(=O)O)NC(=O)Cn1c(=O)[nH]c2ccc(N3CCNCC3)cc2c1=O,,0,pIC50 [5]: 7.57
C#C[C@H](CC(=O)O)NC(=O)CN1CCc2ccc(-c3ccncc3)cc2C1=O,,,pIC50 [5]: 6.80
C#C[C@H](CC(=O)OCC)NC(=O)CN1CCc2ccc(C3CCNCC3)cc2C1=O,,,inhibition in vivo at 0.3 mg/kg [4]: 40%
CCOC(=O)C[C@H](NC(=O)CN1CCc2ccc(N3CCNCC3)cc2C1=O)c1cccnc1,,75,T max [6]: 2.5
N[C@@H](CNC(=O)CN1CCc2ccc(N3CCNCC3)cc2C1=O)C(=O)O,6.20,,
O=C(O)C[C@H](NC(=O)CN1CCc2ccc(N3CCOCC3)cc2C1=O)c1cccnc1,,,pIC50 [5]: < 3.52
O=C(O)C[C@H](NC(=O)CN1CCc2ccc(N3CCNCC3)cc2C1=O)c1cccnc1,,100,pIC50 [5]: 7.89; T max [7]: 1
C#C[C@H](CC(=O)OCC)NC(=O)CN1CCc2cc(F)c(N3CCNCC3)cc2C1=O,,,inhibition in vivo at 0.3 mg/kg [4]: 100%
C#C[C@H](CC(=O)O)NC(=O)CN1CCc2ccc(N3CCNCC3)cc2C1,6.49,,
O=C(O)CCNC(=O)CN1CCc2ccc(N3CCNCC3)cc2C1=O,,,pIC50 [8]: 6.85
C[C@H](CC(=O)O)NC(=O)CN1CCc2ccc(N3CCNCC3)cc2C1=O,7.52,100,

# Second part, led by results:
pIC50 [3],SMILES,inhibition in vivo at 0.5 mg/kg [2] [%],also measured
7.80,O=C(O)C[C@@H](CCc1ccccc1)NC(=O)CN1CCc2ccc(N3CCNCC3)cc2C1=O,20,
7.92,C#C[C@H](CC(=O)O)NC(=O)CN1CCc2ccc(N3CCNCC3)cc2C1=O,,inhibition in vivo at 0.3 mg/kg [4]: 80%
7.46,C#C[C@H](CC(=O)O)NC(=O)CN1CCc2ccc(N3CCNCC3)c(Cl)c2C1=O,,
7.72,C#C[C@H](CC(=O)O)NC(=O)CN1CCc2cc(Cl)c(N3CCNCC3)cc2C1=O,80,
7.82,C#C[C@H](CC(=O)O)NC(=O)CN1CCc2cc(F)c(N3CCNCC3)cc2C1=O,95,
7.74,O=C(O)C[C@H](NC(=O)CN1CCc2ccc(N3CCNCC3)cc2C1=O)c1ccc[n+]([O-])c1,,
